In publication PMC6154738, “Anti-Onchocerca and Anti-Caenorhabditis Activity of a Hydro-Alcoholic Extract from the Fruits of Acacia nilotica and Some Proanthocyanidin Derivatives” (Molecules : A Journal of Synthetic Chemistry and Natural …, 2017):
In brackets after ≈: the same amount, converted by molar mass. Read-outs that look alike come from different tables or passages of the source.

What was measured:
O. ochengi = conditions: cited from earlier work
O. ochengi males = experiment: microbe, parasite or virus in culture; design: species or system Onchocerca ochengi; conditions: for LC50: Onchocerca ochengi, 48 h; for Selectivity Index (SI) O. ochengi Males: SI = CC50 on Caco-2/LC50 on worm
Description: The adult male worms were isolated as previously describe by Ndjonka et al. from fresh pieces of cattle skin (cow-udder) with palpable nodules obtained from the communal slaughter house of Ngaoundere in the Adamawa region of Cameroon. Nodules removed from the skin were brought to the laboratory, washed, drained and sterilized with 70% ethanol for dissection. After dissection of nodules, O. ochengi were extracted, isolated and washed three times in sterile phosphate-buffered saline (PBS). To analyze the anthelmintic activity of extract, fractions and pure compounds, the worms were incubated at 37 °C.
(§1) Adult worms (six individuals per well for males and one per well for the female) and Mf were washed twice and were subsequently transferred to RPMI-1640 medium supplemented with L-glutamine, 100 U/mL penicillin and 100 µg/mL streptomycin and incubated at 37 °C in 24-well plates (96-well plate for Mf) with different concentrations of the drugs tested. Worm mortality was checked by observation under the binocular microscope after 48 h. After shaking, immotile and fully-elongated worms were considered to be dead. All tests were done in three independent triplicate determinations.

O. ochengi females = experiment: microbe, parasite or virus in culture; design: species or system Onchocerca ochengi; conditions: for LC50: Onchocerca ochengi, 48 h; for Selectivity Index (SI) O. ochengi Females: SI = CC50 on Caco-2/LC50 on worm
Procedure: The adult female worms were isolated by digestion of the nodules with collagenase at 37 °C. The female worms were cultured in a CO2-incubator [67]. For anthelmintic activity, they were incubated with the crude extracts, fractions and pure compounds.
as §1

O. ochengi microfilariae = experiment: microbe, parasite or virus in culture; design: species or system Onchocerca ochengi; conditions: for LC50: Onchocerca ochengi, 48 h; for Selectivity Index (SI) O. ochengi Microfilariae: SI = CC50 on Caco-2/LC50 on worm
Procedure: Microfilariae were isolated as describe by Cho-Ngwa et al. and Ndjonka et al.. About 10 skin snips were obtained from different locations of the skin. The skin snips were then incubated at 37 °C in PBS to let Mf emerge. The highly motile Mf were concentrated by centrifugation at 400× g for 10 min and quantified. The Mf were incubated at 37 °C with the crude extract, fractions and pure compounds.
as §1

[1] = tested on: C. elegans CB211 (lev-1(e211) IV); experiment: microbe, parasite or virus in culture; conditions: Caenorhabditis elegans, 48 h
Procedure: (§2) All strains were obtained from the Caenorhabditis Genetic Centre (CGC, Minneapolis, MN, USA). Strains were maintained at 20 °C on nematode growth medium (NGM). All worms were age-synchronized and obtained from eggs that were isolated by bleaching.
(§3) Young adult (L4 stage) worms were used to assess drug lethality. Monitored endpoint was 48 h mortality. Tests were performed in 24-well plates. Five hundred (500) microliters of test solution, which is M9-buffer (3 g KH2PO4, 6 g Na2HPO4, 5 g NaCl, 0.25 g MgSO4.7H2O, in 1 L of water after been autoclaved supplemented with 2% glucose, 0.5% cholesterol), were distributed in 24-well plates. The volume of M9-buffer equivalent to the drug to be added for each drug final concentration (in each test, three to six concentrations were used) was removed. Untreated worms in M9-buffer were used as negative control. […] Crude extract fraction (stock solution at 100 mg/mL) and pure compound (stock solution at 100 mg/mL) previously dissolved in M9-buffer were then added in well plates at increasing concentration (varying from 0 to 1000 or 1500 µg/mL for extract and fractions; 0 to 100 or 150 µg/mL). The young adult (10 to 15 ± 2) from the axenic culture (without food source) were then added at the test solution. […] Treatments were replicated three times.

[2] = tested on: C. elegans CB3474 (ben-1(e1880) III); experiment: microbe, parasite or virus in culture; conditions: Caenorhabditis elegans, 48 h
Procedure: as §2, §3

[3] = tested on: C. elegans DA1316 (avr-14(ad1302) I avr-15(ad1051) glc-1(pk54)); experiment: microbe, parasite or virus in culture; conditions: Caenorhabditis elegans, 48 h
Procedure: as §2, §3

C. elegans N2 Bristol WT = experiment: microbe, parasite or virus in culture; conditions: for LC50: Caenorhabditis elegans, 48 h; for Selectivity Index (SI) C. elegans Wild Type: SI = CC50 on Caco-2/LC50 on worm
Procedure: as §2, §3

[4] = tested on: C. elegans VC722 (glc-2(ok1047) I); experiment: microbe, parasite or virus in culture; conditions: Caenorhabditis elegans, 48 h
Procedure: as §2, §3

[5] = tested on: C. elegans ZZ16 (lev-9(x16) X); experiment: microbe, parasite or virus in culture; conditions: Caenorhabditis elegans, 48 h
Procedure: as §2, §3

[6] = In vitro cytotoxicity (MTT) and CC50 determination; format: cell-based; conditions: human; for CC50 at 48 h: Caco-2, CC50 after 48 h calculated in µM, read-out: Cytotoxicity CC50, Caco-2 (in brackets) (converted); for CC50 at 72 h: Caco-2, MTT, read-out: Cytotoxicity, means CC50 ± SD, Caco-2
Procedure: Cell culture: […] cells at Passage 70 were kindly provided by Prof. Hensel, Institute of Pharmaceutical Biology and Phytochemistry, University of Münster, and were cultured as previously describe by Zumdick et al..
Cytotoxicity test: The cytotoxicity assays were performed according to the method of Rahman et al.. Briefly, 1.5 × 10^4 viable cells/well were seeded in a 96-well plate and incubated for 24 to 48 h. […] DMEM samples were used as the negative control. […] The medium was removed, and formazan, generated by the activity of dehydrogenases, was solubilized with 70 µL of acidified isopropanol (0.4 M HCl). The amount of MTT-formazan that is directly proportional to the number of living cells was determined by measuring the optical density (OD) at 540 nm using a spectrophotometer. All controls used were treated equally. As control and to determine 100% growth, Caco-2 cells were grown in the absence of drugs so as to calculate cell viability. All determinations were performed in triplicate. […] The selectivity index (SI) values were calculated as the ratio: SI = CC50 of drug on Caco2/LC50 of drug on worm.

Wistar rats = experiment: Acute oral toxicity on rats
Description: Adult Wistar rats (Rattus norvegicus), males aged 7 to 8 weeks and weighing 150 to 200 g, used for the experiments were obtained from LANAVET (Laboratoire National Vétérinaire, Garoua, Cameroon). The rats were acclimatized for one week in the Veterinary Research Laboratory of the Institute of Agricultural Research for Development, Wakwa, Cameroon, before initiating experiments. Animals were housed in groups of three (one group for the negative control, six groups for each drug at the first phase, six others at the second phase) under ambient temperatures (23 °C ± 1 °C) with relative humidity 55 ± 5% and 12 h light/dark cycle in polycarbonate cages. […] They were monitored by a veterinarian for health status.
Acute oral toxicity (LD50, that is the dose that kills 50% of animals of the tested group) was measured using the method of the OECD guidelines for the testing of chemicals [56] following the European Community guidelines for the protection of animals used in experiments [69] and respecting the 3Rs (Replacement, Refinement, Reduction) [70]. Drugs in distilled water were orally administered separately at doses of 10 mg/kg, 100 mg/kg and 1000 mg/kg body weight. The negative controls were distilled water-administered rats. They were given to three groups of three rats each and observed for 24 h. […] The test was done at a single oral dose for each rat in a 5 mL/kg volume. The experimental animals were starved for 24 h before and 4 h after treatment. […] The appearance of toxic symptoms, such as behavioral changes, locomotion, convulsions and mortality, was observed and recorded. Animals were observed constantly for the first 30 min after administration and, thereafter, every 4 h up to 24 h and, subsequently, once a day for up to 14 days.

[7] = read-out: LC50/48 h (in brackets)
[8] = Phase 1, 10 mg/kg single oral dose
[9] = Phase 1, 100 mg/kg single oral dose
[10] = Phase 1, 1000 mg/kg single oral dose
[11] = Phase 2, 1500 mg/kg single oral dose
[12] = Phase 2, 3000 mg/kg single oral dose
[13] = Phase 2, 5000 mg/kg single oral dose

Row | SMILES | LC50 (O. ochengi males; read-out: LC50/48 h) | LC50 (O. ochengi males; [7]) | Selectivity Index (SI) O. ochengi Males (O. ochengi males) | LC50 (O. ochengi females; read-out: LC50/48 h) | LC50 (O. ochengi females; [7]) | Selectivity Index (SI) O. ochengi Females (O. ochengi females) | LC50 (O. ochengi microfilariae; read-out: LC50/48 h) | LC50 (O. ochengi microfilariae; [7]) | Selectivity Index (SI) O. ochengi Microfilariae (O. ochengi microfilariae) | LC50 ([1]; read-out: LC50/48 h) | LC50 ([2]; read-out: LC50/48 h) | LC50 (C. elegans N2 Bristol WT; read-out: LC50/48 h) | LC50 (C. elegans N2 Bristol WT; [7]) | Selectivity Index (SI) C. elegans Wild Type (C. elegans N2 Bristol WT) | LC50 ([5]; read-out: LC50/48 h) | CC50 at 48 h [6] | CC50 at 72 h [6] | Mortality of rats: rat number end/start (Wistar rats; [8]) | Mortality of rats: rat number end/start (Wistar rats; [9]) | Mortality of rats: rat number end/start (Wistar rats; [10]) | further results
1 | CCCCC/C=C\C/C=C\CCCCCCCC(=O)O [linoleic acid] |  |  |  |  |  |  |  |  |  |  |  |  |  |  |  |  |  |  |  |  | LC50 (O. ochengi): 55.7 µM
2 | O=C(O[C@H]1Cc2c(O)cc(O)cc2O[C@@H]1c1ccc(O)c(O)c1)c1cc(O)c(O)c(O)c1 [CG, (+)-catechin-3-O-gallate] | 7.6 ± 0.2 µg/mL | 17.2 µM | 8.7 | 4.5 ± 0.3 µg/mL | 10.2 µM | 14.7 | 4.2 ± 0.1 µg/mL | 9.4 µM | 15.8 | 96.4 ± 0.1 µg/mL | 95.2 ± 0.3 µg/mL | 90.6 ± 0.07 µg/mL | 205 µM | 0.7 | 95.3 ± 0.1 µg/mL | 150 µM | 66.3 ± 0.6 µg/mL (≈ 150 µM) | 0/3 | 0/3 | 0/3 | LC50 [1, 7]: 218 µM; LC50 [2, 7]: 215 µM; LC50 ([3]; read-out: LC50/48 h): 96.3 ± 0.3 µg/mL; LC50 [3, 7]: 218 µM; LC50 ([4]; read-out: LC50/48 h): 91.8 ± 0.3 µg/mL; LC50 [4, 7]: 208 µM; LC50 [5, 7]: 215 µM; Mortality of rats: rat number end/start (Wistar rats; [11]): 0/3; Mortality of rats: rat number end/start (Wistar rats; [12]): 0/3; Mortality of rats: rat number end/start (Wistar rats; [13]): 0/3
3 | CCCSc1ccc2nc(NC(=O)OC)[nH]c2c1 [Albendazole, reference compound] | 4.2 ± 0.3 µg/mL | 15.7 µM | 7 | 1 ± 0.2 µg/mL | 3.9 µM | 29.4 | 2.1 ± 0.5 µg/mL | 7.8 µM | 14 |  | > 100 µg/mL |  | 26.4 µM | 4.1 |  | 111 µM | 29.4 ± 0.5 µg/mL (≈ 111 µM) | 0/3 | 0/3 | 0/3 | Mortality of rats: rat number end/start (Wistar rats; [11]): 0/3; Mortality of rats: rat number end/start (Wistar rats; [12]): 0/3; Mortality of rats: rat number end/start (Wistar rats; [13]): 0/3
4 | Oc1cc(O)c2c(c1)O[C@H](c1cc(O)c(O)c(O)c1)[C@H](O)C2 [EGC, (−)-epigallocatechin] | 2.1 ± 0.4 µg/mL | 6.8 µM | 22.4 | 3.3 ± 0.6 µg/mL | 10.6 µM | 14.3 | 3.3 ± 0.5 µg/mL | 10.6 µM | 14.3 | 83.3 ± 0.6 µg/mL | 53.8 ± 0.9 µg/mL | 62.7 ± 0.2 µg/mL | 205 µM | 0.8 | 92 ± 0.3 µg/mL | 154 µM | 47.1 ± 0.5 µg/mL (≈ 154 µM) | 0/3 | 0/3 | 0/3 | LC50 [1, 7]: 272 µM; LC50 [2, 7]: 176 µM; LC50 ([3]; read-out: LC50/48 h): 87.5 ± 0.5 µg/mL; LC50 [3, 7]: 286 µM; LC50 ([4]; read-out: LC50/48 h): 93.8 ± 0.3 µg/mL; LC50 [4, 7]: 306 µM; LC50 [5, 7]: 301 µM; Mortality of rats: rat number end/start (Wistar rats; [11]): 0/3; Mortality of rats: rat number end/start (Wistar rats; [12]): 0/3; Mortality of rats: rat number end/start (Wistar rats; [13]): 0/3
5 | Oc1cc(O)c2c(c1)O[C@H](c1cc(O)c(O)c(O)c1)[C@@H](O)C2 [GC, (+)-gallocatechin] | 4.2 ± 0.1 µg/mL | 13.6 µM | 15.9 | 5.5 ± 0.3 µg/mL | 18 µM | 12.1 | 3.2 ± 0.3 µg/mL | 10.4 µM | 20.8 | 21.5 ± 0.3 µg/mL | 83.1 ± 0.1 µg/mL | 74.3 ± 0.3 µg/mL | 242 µM | 0.9 | 65.6 ± 0.2 µg/mL | 218 µM | 66.7 ± 0.7 µg/mL (≈ 218 µM) | 0/3 | 0/3 | 0/3 | LC50 [1, 7]: 70.2 µM; LC50 [2, 7]: 271 µM; LC50 ([3]; read-out: LC50/48 h): 82.5 ± 0.1 µg/mL; LC50 [3, 7]: 269 µM; LC50 ([4]; read-out: LC50/48 h): 96.3 ± 0.07 µg/mL; LC50 [4, 7]: 314 µM; LC50 [5, 7]: 214 µM; Mortality of rats: rat number end/start (Wistar rats; [11]): 0/3; Mortality of rats: rat number end/start (Wistar rats; [12]): 0/3; Mortality of rats: rat number end/start (Wistar rats; [13]): 0/3
6 | c1ccc([C@H]2CN3CCSC3=N2)cc1 [Levamisole, reference compound] | 1 ± 1 µg/mL | 5.1 µM | 27.3 | 2.1 ± 0.1 µg/mL | 10.2 µM | 13.0 | 1 ± 0.3 µg/mL | 5.1 µM | 27.3 | > 100 µg/mL |  | 1.4 ± 0.2 µg/mL | 7.2 µM |  | > 100 µg/mL | 31.2 µM | 27.3 ± 0.8 µg/mL (≈ 134 µM) |  |  |  | 
